# Tests used:
# sugar beet = assay: Test B pre/postemergence sugar beet; assay type: in vivo, Beta vulgaris; conditions: for Plant response rating, Sugarbeets: Postemergence
# How it was run: (§1)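 Herbicidal effect was estimated by eye on a ten-point control scale after plants spent twelve to sixteen days in a greenhouse following soil or foliar treatment. Foliar sprays targeted plants at one to four leaves; all doses were formulated in a non-phytotoxic solvent with surfactant.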
# wild oat = assay: Test B pre/postemergence wild oat; assay type: in vivo, Avena fatua; conditions: for Plant response rating, Wild oats: Postemergence
# How it was run: as §1
# giant foxtail = assay: Test B pre/postemergence giant foxtail; assay type: in vivo, Setaria faberii
# How it was run: as §1
# blackgrass = assay: Test B pre/postemergence blackgrass; assay type: in vivo, Alopecurus myosuroides
# How it was run: as §1
# smallflower flatsedge = assay: Test B flood test smallflower flatsedge; assay type: in vivo, Cyperus difformis
# How it was run: (§2)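 Plants were grown to the 2-leaf stage before treatment with test chemical, then held in a greenhouse for twelve to sixteen days. Injury was visually rated against untreated controls on a 0–10 scale, where 0 is no effect and 10 is complete control.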
# surinam grass = assay: Test B pre/postemergence surinam grass; assay type: in vivo, Brachiaria decumbens
# How it was run: as §1
# pigweed = assay: Test B pre/postemergence pigweed; assay type: in vivo, Amaranthus retroflexus; conditions: for Plant response rating, Redroot pigweed: Postemergence
# How it was run: as §1
# bedstraw = assay: Test B pre/postemergence bedstraw; assay type: in vivo, Galium aparine
# How it was run: as §1
# crabgrass = assay: Test B pre/postemergence crabgrass; assay type: in vivo, Digitaria sanguinalis
# How it was run: as §1
# velvetleaf = assay: Test B pre/postemergence velvetleaf; assay type: in vivo, Abutilon theophrasti; conditions: for Plant response rating, Velvetleaf: Postemergence
# How it was run: as §1
# cocklebur = assay: Test B pre/postemergence cocklebur; assay type: in vivo, Xanthium strumarium
# How it was run: as §1
# bamyardgrass = assay: Test B flood test barnyardgrass; assay type: in vivo, Echinochloa crus-galli
# How it was run: as §2
# soybean = assay: Test B pre/postemergence soybean; assay type: in vivo, Glycine max; conditions: for Plant response rating, Soybean: Postemergence; for Plant response rating, Soybean / Soybean plant response rating: scale of 0 to 10 where 0 is no effect and 10 is complete control
# How it was run: as §1
# rice = assay: Test B flood test rice; assay type: in vivo, Oryza sativa
# How it was run: as §2
# corn = assay: Test B pre/postemergence corn; assay type: in vivo, Zea mays
# How it was run: as §1
# purple nutsedge = assay: Test B pre/postemergence purple nutsedge; assay type: in vivo, Cyperus rotundus
# How it was run: as §1
# [1] = Rate 125 g/ha, scale of 0 to 10 where 0 is no effect and 10 is complete control
# [2] = Rate 500 g/ha, scale of 0 to 10 where 0 is no effect and 10 is complete control
# [3] = Preemergence, Rate 62 g/ha, scale 0 to 10 (0 no effect, 10 complete control)
# [4] = Preemergence, Rate 125 g/ha, scale of 0 to 10 where 0 is no effect and 10 is complete control
# [5] = Preemergence, Rate 500 g/ha, scale of 0 to 10 where 0 is no effect and 10 is complete control
# [6] = Rate 250 g/ha, scale of 0 to 10 where 0 is no effect and 10 is complete control
# [7] = Postemergence, Rate 62 g/ha, scale of 0 to 10, 0 is no effect, 10 is complete control
# [8] = Postemergence, Rate 125 g/ha, scale of 0 to 10 where 0 is no effect and 10 is complete control
# [9] = Postemergence, Rate 500 g/ha, scale of 0 to 10 where 0 is no effect and 10 is complete control
# [10] = Rate 250 g/ha, Postemergence, scale of 0 to 10 where 0 is no effect and 10 is complete control
# [11] = Rate 62 g/ha, flood test species, Pre-emergence, visual evaluation after twelve to sixteen days
# [12] = Rate 125 g/ha, under heading Pre-emergence, flood test species, visual evaluation after twelve to sixteen days
# [13] = Rate 250 g/ha, Pre-emergence (flood test species), scale 0 to 10, 0 is no effect, 10 is complete control
# [14] = Rate 500 g/ha, Pre-emergence section of Table B, 0 to 10 scale (0 no effect, 10 complete control)
compound,measurement,setting,value
CC(C)N(C(=O)n1oc(=O)n(CC2CCC2)c1=O)c1ccccc1 [Compound 580],"Plant response rating, Sugarbeets",sugar beet; [1],4
same,"Plant response rating, Sugarbeets",sugar beet; [2],6
same,Sugarbeets plant response rating,sugar beet; [3],0
same,Sugarbeets plant response rating,sugar beet; [4],0
same,Sugarbeets plant response rating (0 to 10 scale),"sugar beet; Preemergence, Rate 250 g/ha",4
same,Sugarbeets plant response rating,sugar beet; [5],5
same,"Plant response rating, Sugarbeets",sugar beet; [6],5
same,"Plant response rating, Wild oats",wild oat; [1],0
same,"Plant response rating, Wild oats",wild oat; [2],7
same,Wild oats plant response rating,wild oat; [3],0
same,Wild oats plant response rating,wild oat; [4],0
same,Wild oats plant response rating (0 to 10 scale),"wild oat; Preemergence, Rate 250 g/ha",2
same,Wild oats plant response rating,wild oat; [5],5
same,"Plant response rating, Wild oats",wild oat; [6],3
same,Giant foxtail plant response rating,giant foxtail; [7],0
same,"Plant response rating, Giant foxtail",giant foxtail; [8],6
same,"Plant response rating, Giant foxtail",giant foxtail; [9],8
same,Giant foxtail plant response rating,giant foxtail; [3],9
same,Giant foxtail plant response rating,giant foxtail; [4],9
same,Giant foxtail plant response rating (0 to 10 scale),"giant foxtail; Preemergence, Rate 250 g/ha",10
same,Giant foxtail plant response rating,giant foxtail; [5],10
same,"Plant response rating, Giant foxtail",giant foxtail; [10],8
same,Blackgrass plant response rating,blackgrass; [7],2
same,"Plant response rating, Blackgrass",blackgrass; [8],6
same,"Plant response rating, Blackgrass",blackgrass; [9],7
same,Blackgrass plant response rating,blackgrass; [3],0
same,Blackgrass plant response rating,blackgrass; [4],3
same,Blackgrass plant response rating (0 to 10 scale),"blackgrass; Preemergence, Rate 250 g/ha",7
same,Blackgrass plant response rating,blackgrass; [5],7
same,"Plant response rating, Blackgrass",blackgrass; [10],7
same,"Plant response rating, S. Flatsedge (0 to 10 scale, 0 is no effect, 10 is complete control)",smallflower flatsedge; [11],0
same,"S. Flatsedge plant response rating (0 to 10 scale, 0 is no effect, 10 is complete control)",smallflower flatsedge; [12],0
same,S. Flatsedge plant response rating,smallflower flatsedge; [13],0
same,S. Flatsedge plant response rating,smallflower flatsedge; [14],0
same,B. signalgrass plant response rating,surinam grass; [7],0
same,"Plant response rating, B. signalgrass",surinam grass; [8],2
same,"Plant response rating, B. signalgrass",surinam grass; [9],8
same,B. signalgrass plant response rating,surinam grass; [3],2
same,B. signalgrass plant response rating,surinam grass; [4],6
same,"B. signalgrass plant response rating (0 to 10 scale, 0 is no effect, 10 is complete control)","surinam grass; Preemergence, Rate 250 g/ha",6
same,B. signalgrass plant response rating,surinam grass; [5],9
same,"Plant response rating, B. signalgrass",surinam grass; [10],5
same,"Plant response rating, Redroot pigweed",pigweed; [1],5
same,"Plant response rating, Redroot pigweed",pigweed; [2],9
same,Redroot pigweed plant response rating,pigweed; [3],9
same,Redroot pigweed plant response rating,pigweed; [4],10
same,Redroot pigweed plant response rating (0 to 10 scale),"pigweed; Preemergence, Rate 250 g/ha",10
same,Redroot pigweed plant response rating,pigweed; [5],10
same,"Plant response rating, Redroot pigweed",pigweed; [6],5
same,Bedstraw plant response rating,bedstraw; [7],3
same,"Plant response rating, Bedstraw",bedstraw; [9],9
same,Bedstraw plant response rating,bedstraw; [3],0
same,Bedstraw plant response rating,bedstraw; [4],4
same,Bedstraw plant response rating (0 to 10 scale),"bedstraw; Preemergence, Rate 250 g/ha",6
same,Bedstraw plant response rating,bedstraw; [5],6
same,"Plant response rating, Bedstraw",bedstraw; [10],0
same,Crabgrass plant response rating,crabgrass; [7],0
same,"Plant response rating, Crabgrass",crabgrass; [8],3
same,Crabgrass plant response rating,crabgrass; [3],6
same,Crabgrass plant response rating,crabgrass; [4],6
same,Crabgrass plant response rating (0 to 10 scale),"crabgrass; Preemergence, Rate 250 g/ha",9
same,Crabgrass plant response rating,crabgrass; [5],9
same,"Plant response rating, Crabgrass",crabgrass; [10],9
same,"Plant response rating, Velvetleaf",velvetleaf; [1],2
same,"Plant response rating, Velvetleaf",velvetleaf; [2],3
same,Velvetleaf plant response rating,velvetleaf; [3],0
same,Velvetleaf plant response rating,velvetleaf; [4],0
same,Velvetleaf plant response rating (0 to 10 scale),"velvetleaf; Preemergence, Rate 250 g/ha",2
same,Velvetleaf plant response rating,velvetleaf; [5],5
same,"Plant response rating, Velvetleaf",velvetleaf; [6],2
same,Cocklebur plant response rating,cocklebur; [7],3
same,"Plant response rating, Cocklebur",cocklebur; [8],3
same,"Plant response rating, Cocklebur",cocklebur; [9],6
same,Cocklebur plant response rating,cocklebur; [3],0
same,Cocklebur plant response rating,cocklebur; [4],0
same,Cocklebur plant response rating (0 to 10 scale),"cocklebur; Preemergence, Rate 250 g/ha",0
same,Cocklebur plant response rating,cocklebur; [5],3
same,"Plant response rating, Cocklebur",cocklebur; [10],3
same,"Plant response rating, Barnyardgrass (0 to 10 scale, 0 is no effect, 10 is complete control)",bamyardgrass; [11],0
same,"Barnyardgrass plant response rating (0 to 10 scale, 0 is no effect, 10 is complete control)",bamyardgrass; [12],0
same,Barnyardgrass plant response rating,bamyardgrass; [13],0
same,Barnyardgrass plant response rating,bamyardgrass; [14],0
same,"Plant response rating, Soybean",soybean; Rate 125 g/ha,4
same,"Plant response rating, Soybean",soybean; Rate 500 g/ha,4
same,Soybean plant response rating,"soybean; Preemergence, Rate 125 g/ha",0
same,Soybean plant response rating (0 to 10 scale),"soybean; Preemergence, Rate 250 g/ha",0
same,Soybean plant response rating,"soybean; Preemergence, Rate 500 g/ha",0
same,"Plant response rating, Soybean",soybean; Rate 250 g/ha,4
same,"Plant response rating, Rice (0 to 10 scale, 0 is no effect, 10 is complete control)",rice; [11],0
same,"Rice plant response rating (0 to 10 scale, 0 is no effect, 10 is complete control)",rice; [12],0
same,Rice plant response rating,rice; [13],0
same,Rice plant response rating,rice; [14],0
same,Corn plant response rating,corn; [7],0
same,"Plant response rating, Corn",corn; [8],0
same,"Plant response rating, Corn",corn; [9],0
same,Corn plant response rating,corn; [3],0
same,Corn plant response rating,corn; [4],0
same,Corn plant response rating (0 to 10 scale),"corn; Preemergence, Rate 250 g/ha",2
same,Corn plant response rating,corn; [5],5
same,"Plant response rating, Corn",corn; [10],0
same,Nutsedge plant response rating,purple nutsedge; [7],0
same,"Plant response rating, Nutsedge",purple nutsedge; [8],0
same,Nutsedge plant response rating,purple nutsedge; [3],0
same,Nutsedge plant response rating,purple nutsedge; [4],0
same,Nutsedge plant response rating (0 to 10 scale),"purple nutsedge; Preemergence, Rate 250 g/ha",0
same,Nutsedge plant response rating,purple nutsedge; [5],5
